Consider 20 compounds from US7786155B2, “Organic compounds” (Novartis AG, priority 2007, dated 2010).

For the assay, the target named is T1, recombinant human NPY Y2 receptors (Homo sapiens, UniProt P49146).
T1 construct: expressed in transfected cells; host or cells: CHO-C4 cells (membrane preparation)
T1 sequence (P49146 1-381): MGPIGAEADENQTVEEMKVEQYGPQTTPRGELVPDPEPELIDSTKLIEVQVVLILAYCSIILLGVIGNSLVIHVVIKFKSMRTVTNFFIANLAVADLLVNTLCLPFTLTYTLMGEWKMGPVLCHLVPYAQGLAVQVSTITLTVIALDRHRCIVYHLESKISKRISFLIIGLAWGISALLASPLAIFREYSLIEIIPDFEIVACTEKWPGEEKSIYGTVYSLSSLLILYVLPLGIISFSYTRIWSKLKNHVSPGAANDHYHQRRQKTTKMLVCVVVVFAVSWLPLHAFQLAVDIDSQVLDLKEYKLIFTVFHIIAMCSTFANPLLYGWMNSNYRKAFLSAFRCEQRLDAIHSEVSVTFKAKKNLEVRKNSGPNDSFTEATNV
Description: Scintillation proximity [35S]GTPγS binding assay (inhibition of 0.5 nM NPY-stimulated [35S]GTPγS binding). The settings on record: 10 μM compound, membranes from CHO-C4 cells expressing recombinant human NPY Y2 receptors; for inhibition at 10 µM: read-out: [%] inhibiton at 10 μM. It counts as biochemical. How it is done:
Preparation of Membranes: CHO-C4 cells expressing recombinant human NPY Y2 receptors were used to prepare membranes for the GTPγS assay. Cells were grown to 80-95% confluency on 15-cm (225 cm^2) tissue culture plates. After aspiration of the culture medium, cells were washed twice with 18 ml ice-cold phosphate-buffered saline (PBS), scraped off and suspended in 3 ml ice-cold PBS in pre-cooled centrifuge tubes. The dishes were rinsed with 2 ml ice-old PBS per dish and the washings were combined with the PBS cell suspension from above. Cells pooled from 5-7 dishes were centrifuged for 5 min at 10,000 rpm (12,000 g) in a Sorvall RC5B centrifuge using an SS34 rotor at […]. The cell pellet was resuspended in 5 ml ice-cold buffer (20 mM HEPES, 10 mM EDTA; pH 7.4) by vortexing (2-5 sec), homogenized using a Polytron (step 4 for 20-30 sec), and ice-cold buffer added to 25 ml. The suspension was centrifuged again for 20 min at 18,000 rpm (39,000 g) at 4° C. and the pellet resuspended in 5 ml ice-cold buffer (20 mM HEPES, 0.1 mM EDTA; pH 7.4) by vortexing (2-5 sec), homogenized with a Polytron (step 4 for 10 sec), and ice-cold buffer added to 25 ml. The suspension was centrifuged a third time for 20 min at 18,000 rpm (39,000 g) at 4° C. The pellet was resuspend in 1 ml ice-cold buffer (20 mM Hepes, 0.1 mM EDTA; pH 7.4) by vortexing (5-8 sec). Two to five resuspended pellets were combined and homogenized using a Polytron (step 4 for 15-25 sec). A small aliquot (20-50 μl) was removed for protein determination by the Coomassie Plus Protein Assay Reagent (Pierce) using BSA as standard. The membrane suspension was aliquoted in precooled (on dry ice) Eppendorf tubes (0.25-1 ml/tube affording approximately 0.5-2 mg of membrane protein/tube). The pellets were frozen and stored at −80° C.
Scintillation proximity [^35S]GTPγS binding assay: Frozen membranes from CHO-C4 cells expressing recombinant human NPY Y2 receptors (2 mg for four 96-well plates) were thawed on ice. Thawed membranes were pipetted into 10 ml of assay buffer (20 mM HEPES, 10 mM MgCl2, 100 mM NaCl, pH 7.4) and homogenized briefly using a Polytron. The final assay mixture was prepared in 96-well microtiter plates (Isoplate Wallac, Perkin Elmer). The composition of the assay mixtures in a final volume of 250 μl per well was as follows: 20 mM HEPES, 10 mM MgCl2, 100 mM NaCl, pH 7.4, 30 μM GDP, 1 mg/ml BSA (added fresh), 5 μg membrane protein, 1.5 mg Wheatgerm agglutinin SPA beads (Amersham), 0.45 nM [^35S]GTPγS (Amersham, SJ1308, 1000 Ci/mmol, stabilized solution), and the test compounds (agonists and/or antagonists) at the appropriate concentrations. The samples were incubated at room temperature for 90 min by shaking, after which the SPA beads were sedimented by centrifugation in an Eppendorf 5804 centrifuge at 2700 rpm for 10 min at room temperature. After 60 min the plates were counted in a TopCount (Canberra). Basal [^35S]GTPγS binding was measured in the absence of agonist (NPY). Non-specific binding was measured in the presence of excess (10 μM) unlabelled GTPγS (Sigma). Nonspecific binding never exceeded 10% of basal binding and was thus not subtracted from the experimental data. Antagonists were tested for the inhibition of 0.5 nM NPY-stimulated [^35S]GTPγS binding. Antagonist inhibition curves were analyzed by non-linear regression using GraphPad Prism software (Version 4.0, GraphPad Software Inc., CA, USA).
Antagonistic activity of compounds of the present invention was examined by the Scintillation proximity [^35S]GTPγS binding assay as described above (inhibition of 0.5 nM NPY-stimulated [^35S]GTPγS binding). The table below represents percentages of inhibition at a concentration of 10 μM.
In general terms: Scintillation proximity formats need no separation of bound from free tracer.

Take `CC1=NC(c2ccccc2)(c2ccccc2)C(=O)N1CC(=O)c1ccc(C(=O)NC(C)C(C)C)cc1` (racemic) [Compound 1, (+/−)-N-(1,2-Dimethyl-propyl)-4-[2-(2-methyl-5-oxo-4,4-diphenyl-4,5-dihydro-imidazol-1-yl)-acetyl]-benzamide]: the inhibition at 10 µM was 34%.
In the case of `CCCC1(c2ccccc2)N=C(C)N(CC(=O)c2ccc(NC(=O)Nc3c(C)noc3C)cc2)C1=O` (racemic) [Compound 6, (+/−)-1-(3,5-Dimethyl-isoxazol-4-yl)-3-{4-[2-(2-methyl-5-oxo-4-phenyl-4-propyl-4,5-dihydro-imidazol-1-yl)-acetyl]-phenyl}-urea], the inhibition at 10 µM is 99%.
Still for that read-out and setting: in the case of `CCCC1(c2ccc(F)cc2)N=C(C)N(CC(=O)c2ccc(NC(=O)Nc3c(C)noc3C)cc2)C1=O` (racemic) [Compound 7, (+/−)-1-(3,5-Dimethyl-isoxazol-4-yl)-3-(4-{2-[4-(4-fluoro-phenyl)-2-methyl-5-oxo-4-propyl-4,5-dihydro-imidazol-1-yl]-acetyl}-phenyl)urea] it was 91%.
Still for that read-out and setting: in the case of `CCCC1(c2ccc(F)cc2)N=C(C)N(CC(=O)c2ccc(NC(=O)C(CC)CC)cc2)C1=O` (racemic) [Compound 9, (+/−)-2-Ethyl-N-(4-{2-[4-(4-fluoro-phenyl)-2-methyl-5-oxo-4-propyl-4,5-dihydro-imidazol-1-yl]-acetyl}-phenyl)-butyramide] it was 68%; in that of `CCCC1(c2ccccc2)N=C(C)N(CC(=O)c2ccc(NC(=O)Nc3c(C)noc3C)cc2F)C1=O` (racemic) [Compound 10, (+/−)-1-(3,5-Dimethyl-isoxazol-4-yl)-3-{3-fluoro-4-[2-(2-methyl-5-oxo-4-phenyl-4-propyl-4,5-dihydro-imidazol-1-yl)-acetyl]-phenyl}-urea], 97%; in that of `CCCC1(c2ccc(F)cc2)N=C(C)N(CC(=O)c2ccc(NC(=O)Nc3c(C)noc3C)cc2F)C1=O` (racemic) [Compound 11, (+/−)-1-(3,5-Dimethyl-isoxazol-4-yl)-3-(3-fluoro-4-{2-[4-(4-fluoro-phenyl)-2-methyl-5-oxo-4-propyl-4,5-dihydro-imidazol-1-yl]acetyl}-phenyl)-urea], 96%.
For `CCCC1(c2ccc(F)cc2)N=C(C)N(CC(=O)c2ccc(NC(=O)Cc3c(C)noc3C)cc2F)C1=O` (racemic) [Compound 17], the “[%] inhibiton at 10 μM” value is 87%.
As for `CCCC1(c2ccc(F)cc2)N=C(C)N(CC(=O)c2ccc(N(C)C(=O)N(C)c3c(C)noc3C)cc2F)C1=O` (racemic) [Compound 18], the “[%] inhibiton at 10 μM” value amounted to 70%.
Consider `CCC(CC)C(=O)Nc1ccc(C(O)CN2C(=O)C(c3ccccc3)(c3ccccc3)N=C2C)cc1` (racemic) [Compound 26, (+/−)-2-Ethyl-N-{4-[1-hydroxy-2-(2-methyl-5-oxo-4,4-diphenyl-4,5-dihydro-imidazol-1-yl)-ethyl]-phenyl}-butyramide], for which the inhibition at 10 µM was found to be 45%.
Consider `CCCC1(c2ccccc2)N=C(C)N(CC(=O)c2ccc(NC(=O)C(CC)CC)cc2)C1=O` (single isomer, unassigned; (+)) [Compound 25], for which the “[%] inhibiton at 10 μM” value is reported as 92%.
For the compound `CCCC1(c2ccc(F)cc2)N=C(C)N(CC(=O)c2ccc(NC(=O)Cc3c(C)noc3C)cc2F)C1=O` (single isomer, unassigned; (+)) [Compound 36, (+)-2-(3,5-Dimethyl-isoxazol-4-yl)-N-(3-fluoro-4-{2-[4-(4-fluoro-phenyl)-2-methyl-5-oxo-4-propyl-4,5-dihydro-imidazol-1-yl]-acetyl}-phenyl)-acetamide], the “[%] inhibiton at 10 μM” value is given as 75%.
As for `CCCC1(c2ccc(F)cc2)N=C(C)N(CC(=O)c2ccc(NC(=O)Cc3c(C)noc3C)cc2F)C1=O` (single isomer, unassigned; (-)) [Compound 35, (−)-2-(3,5-Dimethyl-isoxazol-4-yl)-N-(3-fluoro-4-{2-[4-(4-fluoro-phenyl)-2-methyl-5-oxo-4-propyl-4,5-dihydro-imidazol-1-yl]-acetyl}-phenyl)acetamide], the inhibition at 10 µM came to 92%.
The same measure, in the same setting: with `CCC(CC)C(=O)Nc1ccc(CCN2C(=O)C(c3ccccc3)(c3ccccc3)N=C2C)cc1` [Compound 4, 2-Ethyl-N-{4-[2-(2-methyl-5-oxo-4,4-diphenyl-4,5-dihydro-imidazol-1-yl)ethyl]-phenyl}-butyramide] the figure was 46%.
Still for that read-out and setting: in the case of `CC1=NC(c2ccccc2)(c2ccccc2)C(=O)N1CCc1ccc(NC(=O)CC(C)C)cc1` [Compound 5, 3-Methyl-N-{4-[2-(2-methyl-5-oxo-4,4-diphenyl-4,5-dihydro-imidazol-1-yl)-ethyl]-phenyl}-butyramide] it was 35%.
For the compound `CCCC1(c2ccc(F)cc2)N=C(C)N(CC(=O)c2ccc(NC(=O)C3CCOC3)cc2F)C1=O` (centres unmarked) [Compound 14, Tetrahydro-furan-3-carboxylic acid (34-fluoro-4-{2-[4-(4-fluoro-phenyl)-2-methyl-5-oxo-propyl-4,5-dihydro-imidazol-1-yl]-acetyl}-phenyl)-amide], the “[%] inhibiton at 10 μM” value turned out to be 39%.
Regarding `CCCC1(c2ccccc2)N=C(C)N(CC(=O)c2ccc(NC(=O)C3CCOC3)cc2F)C1=O` (centres unmarked) [Compound 15, Tetrahydro-furan-3-carboxylic acid {3-fluoro-4-[2-(2-methyl-5-oxo-4-phenyl-4-propyl-4,5-dihydro-imidazol-1yl)-acetyl]-phenyl}-amide], the inhibition at 10 µM stood at 42%.
On the same count and under the same terms, in the case of `CCCC1(c2ccc(F)cc2)N=C(C)N(CC(=O)c2ccc(NC(=O)C3CCOC3)cc2)C1=O` (centres unmarked) [Compound 16, Tetrahydro-furan-3-carboxylic acid (4-{2-[4-(4-fluoro-phenyl)-2-methyl-5-oxo-4-propyl-4,5-dihydro-imidazol-1-yl]-acetyl}-phenyl)-amide] it was 28%; in that of `CC1=NC(c2ccccc2)(c2ccccc2)C(=O)N1CC(=O)c1ccc(NC(=O)c2ccccc2F)cc1` [Compound 21, 2-Fluoro-N-{4-[2-(2-methyl-5-oxo-4,4-diphenyl-4,5-dihydro-imidazol-1-yl)-acetyl]-phenyl}-benzamide], 61%.
Still for that read-out and setting: with `CC1=NC(c2ccccc2)(c2ccccc2)C(=O)N1CC(=O)c1ccc(NC(=O)Cc2ccccc2C)cc1` [Compound 22, N-{4-[2-(2-Methyl-5-oxo-4,4-diphenyl-4,5-dihydro-imidazol-1-yl)-acetyl]-phenyl}-2-o-tolyl-acetamide] the figure was 55%.
For `COc1ccccc1C(=O)Nc1ccc(C(=O)CN2C(=O)C(c3ccccc3)(c3ccccc3)N=C2C)cc1` [Compound 23, 2-Methoxy-N-{4-[2-(2-methyl-5-oxo-4,4-diphenyl-4,5-dihydro-imidazol-1-yl)-acetyl]-phenyl}-benzamide], the inhibition at 10 µM amounted to 46%.
